Reference: patent publication US9980928B2, “Hydroxy aliphatic substituted phenyl aminoalkyl ether derivatives” (PROUS INSTITUTE FOR BIOMEDICAL RESEARCH, S.A., priority 2012, dated 2018)
“And” between values parts separate entries of the source, which are not always exact repeats. Identical values can stand only once. “Also recorded” adds a separate entry of the source.

What was measured:
uptake of serotonin = uptake of serotonin (Homo sapiens, UniProt P31645); test: Uptake inhibition of serotonin, cellular assay; assay type: cell-based; details: read-out: Serotonin reuptake inhibition (IC50 μM)
Method: The effect of the compounds of the present invention as inhibitors of the uptake of norepinephrine and serotonin in cellular assays at concentrations that range from […] to 1 nM is determined following the methods described in Galli, A. et al. J Exp Biol 1995, 198(Pt. 10): 2197-212 and Gu, H. et al. J Biol Chem. 1994, 269(10):7124-30.

p-ERK = test: Western blot of p-ERK in mouse brain after i.p. administration; assay type: in vivo, mice; details: 30 mg/kg i.p., hippocampus, 1 hour after administration; hydrochloride
Method: (§1) Acute biochemical neuronal changes in neurotrophin and synaptic plasticity signaling after the administration of the compounds to be tested may be studied by Western blot assessment of ERK, Akt, phospholipase C (PLC), Trk-B, […] and CAMK II phosphorylation assays in the hippocampus, striatum and cortex at 1 hour post-administration.
(§2) Two groups of animals were used: C57BL control mice and mice treated by i.p. administration of a dose of 30 mg/kg of the compound to be tested diluted in saline solution or control saline (n=6 per group).
(§3) Animals were sacrificed by cervical dislocation at the corresponding time and different brain regions were dissected (frontal cortex, striatum, hippocampus, cerebellum) after […] of having administered the compounds. […] The supernatants were collected and the protein concentration was measured using the Dc protein assay kit (Bio-Rad, Hercules, Calif., USA) read in a 96-well plate. […]
(§4) After primary antibody incubation, membranes were washed with TBS-T and incubated for 1 hour at room temperature with the appropriate horseradish peroxidase-conjugated secondary antibody (1:2000; Promega, Madison, Wis., USA), and the reaction was finally visualized with the Western Blotting Luminol Reagent (Santa Cruz Biotechnology, Santa Cruz, Calif., USA). Western blot replicates were scanned and quantified using a computer-assisted densitometric analysis.

p-PLCγ1 = test: Western blot of p-PLCγ1 in mouse brain after i.p. administration; assay type: in vivo, mice; details: 30 mg/kg i.p., 1 hour after administration
Method: as §1, §2, §3, §4

[1] = tested on: fmr1 KO mice and wild type mice; test: Social behavior test in Fragile X (fmr1 KO) mouse model; assay type: in vivo; details: 30 mg/kg i.p. acute
Method: FIG. 4A plots the time (s) that the test mouse devotes to exploring two cylinders: a first cylinder containing a familiar genotype-matched juvenile stimulus mouse and a second cylinder containing a novel stimulus mouse and the total time of exploration (both cylinders) during a 10 min session. FIG. 4B Plots the percentage of time spent near the two cylinders during the 10 min session. FIG. 4C plots the Discrimination index (time exploring the novel stimulus−time exploring the familiar stimulus/total time of exploration×100).
N=10-12 mice per group. Mice had received an acute i.p. injection of saline (WT 1st bar, fmr1 KO 3rd bar) or 30 mg/kg Example 2 (Wild Type 2nd bar, fmr1 KO 4th bar) 24 h before the session. Data are expressed as mean±S.E.M. Two way ANOVA Treatment effect Φ p<0.05, Genotype x Treatment interaction p<0.05, Bonferroni as post hoc ***p<0.001, **p<0.01, *p<0.05.
Example 2 effects on social disability in a model of Fmr1 KO was performed. Social behavior was examined on an open-field that consisted of an arena (70 cm long×70 cm wide×30 cm high) made of Plexiglas. An overhead camera connected to the video-tracking software SMART (Panlab, Spain) was used to monitor the animal's behavior. The experimental design included three sessions:
1) Habituation session Animals were habituated for 10 min to an arena containing two empty transparent cylinders (30 cm diameter×40 cm high) made of Plexiglas. The cylinders were perforated to have interaction points and were located on two corners of the open field. Time exploring the cylinders was registered along the 10 min duration. After the habituation session mice received an acute injection of either saline or Example 2 (30 mg/kg i.p.) and replaced on their cages. 2) Social interaction 24 h later, animals were replaced to the arena containing the two cylinders, one cylinder was empty and the other one contained a stranger individual (stimulus). The time exploring the two cylinders was registered for 10 minutes. The stimulus individual was always a juvenile mouse (less than two months of age), to avoid the group hierarchy and aggressiveness towards non familiar individuals that show adult male mice. In addition, the stimulus individual was genotype matched with the testing mouse. The position of the stimulus individual was counterbalanced between animals. After the sociability session mice received an acute injection of either saline or Example 2 (30 mg/kg i.p.). 3) Social recognition 24 h later, animals were replaced to the arena containing the two cylinders, one cylinder contained the same stimulus individual presented during the social interaction session (familiar) and the other contained a novel stimulus individual. Both stimuli were juvenile animals and genotype matched. The position of the familiar stimulus remained the same as it was in the social interaction session, and counterbalanced between animals. Once the subject mice finished the test they remained individually housed in a separate cage until the other cage partner finalized the test, to avoid exposition to olfactory cues from stimuli mice. In all cases, those mice from the same cage were never exposed to the same stimuli, either familiar or novel. The time exploring the two cylinders was registered for 10 minutes. The discrimination index was calculated as time exploring the novel stimulus mouse−time exploring the familiar stimulus mouse/total time of exploration×100. The arena and cylinders were deeply cleaned between animals to avoid olfactory cues. All measures of exploration were manually registered by the experimenter blind to genotype and treatment. Exploratory behavior was defined as the animal directing its nose towards the cylinder at a distance of <2 cm. A proximal zone of 14 cm from the cylinders was defined as interaction zone and the time spent in these zones was registered as index of exploratory behavior.

uptake of serotonin, sequence (P31645 whole entry): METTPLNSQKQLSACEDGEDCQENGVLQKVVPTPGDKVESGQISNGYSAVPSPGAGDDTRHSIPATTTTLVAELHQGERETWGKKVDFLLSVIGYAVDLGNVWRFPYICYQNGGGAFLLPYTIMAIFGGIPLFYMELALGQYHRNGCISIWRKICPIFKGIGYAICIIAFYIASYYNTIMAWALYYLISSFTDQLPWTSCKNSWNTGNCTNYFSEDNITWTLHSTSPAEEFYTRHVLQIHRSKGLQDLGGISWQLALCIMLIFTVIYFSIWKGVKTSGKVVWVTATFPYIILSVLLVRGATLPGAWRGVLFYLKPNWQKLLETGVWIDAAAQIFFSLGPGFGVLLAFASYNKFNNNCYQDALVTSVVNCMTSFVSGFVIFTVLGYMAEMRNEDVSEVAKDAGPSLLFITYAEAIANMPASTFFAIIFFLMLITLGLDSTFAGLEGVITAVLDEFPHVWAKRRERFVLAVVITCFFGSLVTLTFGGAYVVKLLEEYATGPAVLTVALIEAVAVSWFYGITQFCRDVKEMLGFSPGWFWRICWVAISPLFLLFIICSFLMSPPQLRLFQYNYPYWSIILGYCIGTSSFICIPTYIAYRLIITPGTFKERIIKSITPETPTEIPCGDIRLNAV

With `CNCCC(Oc1ccc(CCO)cc1)c1ccccc1.Cl` (single isomer, unassigned) [Example 2, 2-[4-[3-(Methylamino)-1-phenylpropoxy]phenyl]ethanol hydrochloride] the IC50 (uptake of serotonin) was 0.328 µM and 0.348 µM, the “p-ERK levels (ERK1/2 phosphorylation)” value (p-ERK) was “positive significant increase; also recorded: trend for an increase” and the p-PLCγ1 change (p-PLCγ1) was “No significant change”. For the same molecule, the “time exploring the familiar stimulus (FIG. 4A)” value ([1]; WT and fmr1 KO mice) was “significantly reduced”, the “social behavior alteration / social abnormalities” value ([1]; fmr1 KO mice) was “completely restored” and the “time exploring the novel stimulus mouse” value ([1]; fmr1 KO mice) was “rose at levels comparable to those detected in wild type animals”. The “time spent near the familiar individual (FIG. 4B)” value ([1]; fmr1 KO mice) was “reducing”, the “time spent near the novel stimulus (FIG. 4B)” value ([1]; fmr1 KO mice) was “significantly increased” and the social recognition ([1]; wild type mice) was “did not modify”.
